In PMC10907609, “Structural and functional characterization of the endogenous agonist for orphan receptor GPR3” (Cell Research, 2024):
pEC50: −log10 of the molar value.

Tests used:
GPR3 [1] = target: T1, GPR3 (Homo sapiens, UniProt P46089); experiment: cryo-EM structure ([…] Å), SPR, MS of co-purified ligand; GTP turnover on purified complex; EC50 from cell-based cAMP Glo-Sensor assay; parameters: GPR3–Gs–scFv16 complex; with Gs heterotrimer (scFv16-stabilised)
Target sequence in this assay (P46089 whole entry): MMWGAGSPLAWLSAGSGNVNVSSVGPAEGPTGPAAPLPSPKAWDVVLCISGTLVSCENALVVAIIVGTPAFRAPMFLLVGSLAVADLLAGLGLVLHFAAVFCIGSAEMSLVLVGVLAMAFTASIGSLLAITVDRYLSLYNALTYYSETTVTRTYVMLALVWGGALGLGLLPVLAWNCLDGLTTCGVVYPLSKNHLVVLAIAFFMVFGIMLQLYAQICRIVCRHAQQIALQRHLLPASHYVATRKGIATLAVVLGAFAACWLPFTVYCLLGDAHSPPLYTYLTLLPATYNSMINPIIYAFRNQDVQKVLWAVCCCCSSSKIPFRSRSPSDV
Target sequence in this assay (P63092 2-394 partner): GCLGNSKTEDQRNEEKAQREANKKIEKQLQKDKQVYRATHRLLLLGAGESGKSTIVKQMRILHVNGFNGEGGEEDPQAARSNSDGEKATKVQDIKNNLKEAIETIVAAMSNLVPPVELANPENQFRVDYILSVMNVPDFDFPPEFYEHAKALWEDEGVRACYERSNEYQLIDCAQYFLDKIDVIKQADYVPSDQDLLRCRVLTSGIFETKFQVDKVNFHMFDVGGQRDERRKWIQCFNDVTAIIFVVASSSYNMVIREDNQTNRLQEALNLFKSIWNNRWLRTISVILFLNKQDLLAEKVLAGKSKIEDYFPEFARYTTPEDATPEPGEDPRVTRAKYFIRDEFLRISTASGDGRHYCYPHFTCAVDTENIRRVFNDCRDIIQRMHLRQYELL
Target sequence in this assay (P62873 2-340 partner): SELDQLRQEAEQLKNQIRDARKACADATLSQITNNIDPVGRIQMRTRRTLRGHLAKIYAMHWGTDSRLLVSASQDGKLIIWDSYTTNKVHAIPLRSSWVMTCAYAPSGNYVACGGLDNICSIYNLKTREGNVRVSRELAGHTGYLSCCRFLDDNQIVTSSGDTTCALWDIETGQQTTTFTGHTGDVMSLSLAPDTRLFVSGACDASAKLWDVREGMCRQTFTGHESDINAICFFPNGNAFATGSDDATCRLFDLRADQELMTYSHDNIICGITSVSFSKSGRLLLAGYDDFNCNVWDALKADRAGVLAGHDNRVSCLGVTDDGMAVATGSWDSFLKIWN
Target sequence in this assay (P59768 2-68 partner): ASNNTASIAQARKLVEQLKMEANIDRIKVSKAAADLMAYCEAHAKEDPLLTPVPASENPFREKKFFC

GPR3 [2] = target: T1, GPR3; experiment: cell-based cAMP Glo-Sensor assay (no significant activity in purified GTP turnover assay)
Target sequence in this assay (P46089 whole entry): as the sequence (P46089 whole entry) above

pEC50 (GPR3 [1]) | pEC50 (GPR3 [2]) | Structure (SMILES)
5.60 | – | CCCCCCCC/C=C\CCCCCCCC(=O)NCCO [OEA, oleoylethanolamide]
– | 5.25 | CCCCCCCC/C=C\CCCCCCCC(N)=O [oleamide]
